Reference: patent US20030170740A1, “Characterized E2IG3 protein for diagnosis and treatment of proliferative diseases” (priority 2001, published 2003)

Tested on: MCF-7 cells
Experiment: High dose E2 treatment of MCF-7 cells (apoptosis)
Assay type: cell-based, human
Conditions: high dose E2 treatment of MCF-7 cells

Structure (SMILES): C[C@]12CC[C@@H]3c4ccc(O)cc4CC[C@H]3[C@@H]1CC[C@@H]2O [E2, 17B-estridiol]
- Effect of high dose E2 on cell fate (apoptosis): committed to apoptotic pathways
